Test results: publication PMC5064445 (ACS infectious diseases, 2015)

Tests used:
HeLa cells = assay: Cytotoxicity assay; format: cell-based, human; settings: up to 500 μM; 24 h incubation
HEK 293 cells = assay: Cytotoxicity assay; format: cell-based, human; settings: up to 500 μM; 24 h incubation
NDM-1 = NDM-1 (Klebsiella pneumoniae, UniProt C7C422); assay: Inhibition of NDM-1-catalyzed imipenem hydrolysis; format: biochemical; settings: relative to L-CS319
NDM-1, sequence (C7C422 39-270 limits assumed): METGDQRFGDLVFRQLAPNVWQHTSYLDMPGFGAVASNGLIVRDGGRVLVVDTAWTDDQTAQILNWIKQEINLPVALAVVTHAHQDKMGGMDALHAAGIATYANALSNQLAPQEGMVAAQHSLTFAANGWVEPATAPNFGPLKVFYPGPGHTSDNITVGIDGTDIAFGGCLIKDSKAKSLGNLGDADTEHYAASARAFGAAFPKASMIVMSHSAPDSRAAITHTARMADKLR

| Structure (SMILES) | toxic effects against HeLa cells (HeLa cells) | toxic effects against Hek 293 cells (HEK 293 cells) | times less active than L-CS319 (in vitro NDM-1 inhibition) (NDM-1) [times] |
| --- | --- | --- | --- |
| O=C(O)[C@@H]1CS[C@H]2CS[C@H](CS)N21 [L-CS319, (2R,5S,8R)-8-Carboxylate-2-mercaptomethyl-1-aza-3,6-dithiobicyclo[3.3.0]octane] | did not show toxic effects | did not show toxic effects | – |
| CC1(C)S[C@@H]2CS[C@@H](CS)N2[C@H]1C(=O)O [D-VC26, (2S,5R,8S)-2-Mercaptomethyl-7-dimethyl-8-carboxylate-1-aza-3,6-dithiobicyclo[3.3.0]octane] | – | – | ~2 |
